Laboratory results as given in patent US20120196824A1, “THERAPEUTIC AGENT FOR CEREBRAL INFARCTION” (MITSUBISHI TANABE PHARMA CORPORATION, priority 2009, published 2012).
Structures can show the parent of a compound that is named as a salt.

Legend:
[1] = system: Mouse Ischemic Stroke Model; test: Infarct volume suppressive and motor function improving effects in mouse ischemic stroke model (Rose Bengal photothrombosis, TTC staining, Rota-rod); type: in vivo; conditions: dose of 10 mg/kg; for infarct volume suppression rate (%): two administrations, measured two days later, TTC staining; for walking time (%): walking time on Rota-Rod with Vehicle 100%, two days later
Experimental: Mouse was fixed under isoflurane anesthesia and the scalp was incised. Rose Bengal (7.5 mg/kg) was administered i.v., and green light (550 nm, Hamamatsu Photonics, K.K.) was immediately irradiated at 2 mm side and 1 mm above the bregma for 5 min. Thereafter, the scalp was bonded with an instant glue. To the test drug and control groups was given the first administration after the mice awoke, and they were subjected to the administration again the next day. Two days later, motor function was evaluated by Rota-rod (up to 60 sec, walking time on Rota-Rod was measured). Then the brain was removed, sliced in 1 mm, the site of infaction was decided by 1% TTC staining and the volume was measured by image analysis. The infarct volume suppression rate (%) and walking time (%) on Rota-Rod with Vehicle 100% at the dose of 10 mg/kg are shown in the following Table. In addition, walking time (sec) on Rota-Rod and infarct volume suppression rate (mm^3) when 3-deazaadenosine was used as a test drug are shown in FIG. 1 and FIG. 2.

[2] = system: homocysteine synthesis; test: Measurement of homocysteine synthesis inhibitory activity in vivo (methionine-loaded mouse, plasma homocysteine); conditions: dose of 10 mg/kg, oral, BALB/c mouse; methionine water 1 hr later; plasma 30 min after; read-out: activity (homocysteine synthesis inhibitory rate)
Experimental: A sample was orally administered to BALB/c mouse and, 1 hr later, methionine water (50 g/L) was orally administered at a proportion of 10 ml/kg. 30 min later, blood samples were collected with heparin from the abdominal vein and plasma was obtained. The plasma homocysteine concentration was measured by treating the plasma with tributylphosphine, removing protein with 10% trichloroacetic acid (TCA), fluorescent labeling the supernatant with 4-fluoro-7-sulfobenzofurazan ammonium salt (SBD-F) under alkali conditions, and quantifying by HPLC. The homocysteine synthesis inhibitory rate of the sample was determined with the difference in the homocysteine value between methionine water-loaded animal and methionine water-unloaded animal as 100%. The detailed conditions of HPLC were as follows.
column used: Wakopak^R HandyODS 150*4.6 mm (Wako Pure Chemical Industries, Ltd.) elution condition: 1.0 ml/min elution solvent: 0.1M phosphate buffer (pH 6.0) 2% methanol wavelength: ex 385 nm em 515 nm

[3] = biological target: T1, Human-recombinant-S-Adenosyl-L-Homocysteine Hydrolase (Homo sapiens, UniProt P23526); test: Measurement of enzyme inhibitory activity (hydrolysis of S-Adenosyl-L-Homocysteine, HPLC); type: biochemical; conditions: S-Adenosyl-L-Homocysteine 10 μM, pH 7.2, 37° C., 15 min
T1 construct: purchased Diazyme Laboratories
T1 sequence (P23526 whole entry): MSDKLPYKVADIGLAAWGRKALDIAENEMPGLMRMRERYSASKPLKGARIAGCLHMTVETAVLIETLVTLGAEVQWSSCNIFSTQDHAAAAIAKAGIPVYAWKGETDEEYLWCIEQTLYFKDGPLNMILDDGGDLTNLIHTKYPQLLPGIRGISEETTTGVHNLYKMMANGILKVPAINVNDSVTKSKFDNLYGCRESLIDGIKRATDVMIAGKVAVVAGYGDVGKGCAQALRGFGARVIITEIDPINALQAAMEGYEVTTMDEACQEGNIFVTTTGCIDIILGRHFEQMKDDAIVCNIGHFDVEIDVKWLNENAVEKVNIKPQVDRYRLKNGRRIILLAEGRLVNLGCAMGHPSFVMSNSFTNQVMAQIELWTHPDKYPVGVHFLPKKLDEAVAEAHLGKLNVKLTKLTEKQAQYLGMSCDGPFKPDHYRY
Procedure, shortened: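 Reactions contained recombinant human SAH hydrolase (50 ng), 10 μM S-adenosyl-L-homocysteine and adenosine deaminase (4 units) in 50 mM phosphate buffer, pH 7.2, with 1 mM EDTA, run 15 min at 37 °C. Remaining substrate was measured by reversed-phase HPLC (UV 258 nm). Inhibitory rate compared substrate depletion with versus without compound.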

Compound | IC50 [3] | infarct volume suppression rate (%) [1] | walking time (%) [1] | inhibition in vivo at 10 mg/kg [2]
CCNCCNC(=O)CN(CC(=O)N(C)N1Cc2ccc(F)cc2C1)c1cc2cnn(C)c2cc1C [Example 244, N^2-(1,6-dimethyl-1H-indazol-5-yl)-N^2-{2-[(5-fluoro-1,3-dihydro-2H-isoindol-2-yl)(methyl)amino]-2-oxoethyl}-N^1-[2-(ethylamino)ethyl]glycinamide hydrochloride] |  | 26% | 330% | ≥ 40%
CCNCCNC(=O)CN(CC(=O)N(C)N1Cc2ccc(F)cc2C1)c1cc(-c2noc(C)n2)ccc1C.Cl [Example 20, N^2-{2-[(5-fluoro-1,3-dihydro-2H-isoindol-2-yl)(methyl)amino]-2-oxoethyl}-N^2-[2-methyl-5-(5-methyl-1,2,4-oxadiazol-3-yl)phenyl]-N^1-[2-(ethylamino)ethyl]glycinamide] | 39 nM | 26% | 240% | ≥ 40%
Nc1nccc2c1ncn2[C@@H]1O[C@H](CO)[C@@H](O)[C@H]1O [3-deazaadenosine, reference compound] |  | 14% | 170% | 
CCNCCNC(=O)CN(CC(=O)N(C)N1Cc2ccc(F)cc2C1)c1cc2c(C)noc2cc1C [Example 183, N^2-(3,6-dimethyl-1,2-benzisoxazol-5-yl)-N^2-{2-[(5-fluoro-1,3-dihydro-2H-isoindol-2-yl)(methyl)amino]-2-oxoethyl}-N^1-[2-(ethylamino)ethyl]glycinamide dihydrochloride] |  | 22% | 240% | 
CCNCCNC(=O)CN(CC(=O)N(C)N1Cc2ccccc2C1)c1ccc(-c2noc(C)n2)cc1C [Example 65, N^2-{2-[1,3-dihydro-2H-isoindol-2-yl(methyl)amino]-2-oxoethyl}-N^2-[2-methyl-4-(5-methyl-1,2,4-oxadiazol-3-yl)phenyl]-N^1-[2-(ethylamino)ethyl]glycinamide] | 47 nM | 30% | 250% | ≥ 40%

Now from value to compound, other results behind:

IC50 [3] | Compound | infarct volume suppression rate (%) [1] | walking time (%) [1] | inhibition in vivo at 10 mg/kg [2]
20 nM | CCNCCNC(=O)CN(CC(=O)N(C)N1Cc2ccc(F)cc2C1)c1cc2cnn(CC(F)F)c2cc1C [Example 253, N^2-[1-(2,2-difluoroethyl)-6-methyl-1H-indazol-5-yl]-N^2-{2-[(5-fluoro-1,3-dihydro-2H-isoindol-2-yl)(methyl)amino]-2-oxoethyl}-N^1-[2-(ethylamino)ethyl]glycinamide hydrochloride] | 16% | 230% | ≥ 40%
47 nM | CCNCCNC(=O)CN(CC(=O)N(C)N1Cc2ccc(F)cc2C1)c1cc2c(cc1C)CCC2=O [Example 215, N^2-{2-[(5-fluoro-1,3-dihydro-2H-isoindol-2-yl)(methyl)amino]-2-oxoethyl}-N^2-(6-methyl-3-oxo-2,3-dihydro-1H-inden-5-yl)-N^1-[2-(ethylamino)ethyl]glycinamide] | 19% | 340% | ≥ 40%
